{"source": "patent US10370385B2", "about": "“Tricyclic mosquitocides and methods of making and using thereof” (The Arizona Board of Regents on Behalf of the University of …, priority 2014, dated 2019)", "key": {"[1]": {"system": "Aedes aegypti (Rockefeller strain) mosquitoes", "experiment": "Microinjection into female mosquitoes before blood feeding; observation for defective phenotypes (midgut, blood meal storage)", "format": "in vivo", "conditions": "200 nL of 5.0 mM compound in 5% DMSO microinjected into four day old females; fed human blood one day later", "experimental": "Aedes aegypti (Rockefeller strain) mosquitoes were reared in standard conditions. Four day old female mosquitoes were microinjected with 200 nL of 5% DMSO (control) or the compound described in Example 1, i.e. 4-isopropyl-8-phenyl-1,3,4,6,6a,9b-hexahydrothiopyrano [3,4-e]isoindole-7,9(8H,9aH)-dione (5.0 mM in 5% DMSO), using Nanoject II (Drummond). The injected mosquitoes were recovered for one day in the environmental chamber and fed on warmed human blood through a membrane feeder. Twenty fully fed mosquitoes from each group were observed under a dissecting microscope for defective phenotypes, including midgut and primary follicle development in the ovaries during the first gonotrophic cycle."}, "blood-fed mosquitoes": {"system": "blood-fed mosquitoes", "experiment": "Evaluation of follicle size after microinjection into blood-fed mosquitos", "format": "in vivo, Aedes aegypti", "conditions": "200 nl of 0.7 mM compound microinjected one hour after blood feeding; ovaries dissected 48 h post blood meal; DMSO control 452.8±6.4 μm", "experimental": "The mosquitos were reared in environmental chambers. Larvae were then fed with a mixture of tropical flakes, rat chow, liver powder, or cat food pellets. Adult pests were maintained on 10% sucrose. Four-day old mosquitos were allowed to feed on human blood supplemented with fresh ATP. One hour after blood feeding, the mosquitos were briefly chilled at 4° C. to immobilize. 200 nl of the compound, 4-isopropyl-8-phenyl-1,3,4,6,6a,9b-hexahydrothiopyrano [3,4-e]isoindole-7,9(8H,9aH)-dione, was diluted in water to a final concentration of 0.7 mM before use. Then the compound was microinjected with a microinjector into fully fed mosquitos. For each experiment, the mosquitos were also microinjected with 2% DMSO (control). Mosquitos were allowed to feed 10% sucrose, and 48 h post blood meal, ovaries were dissected from the injected mosquitos in 1×PBS under a microscope. Ovaries were teased to separate follicles, and the images were digitally captured for follicle length measurement."}, "[2]": {"system": "mosquito larvae (second instar)", "experiment": "Evaluation of mosquito larval mortality", "format": "in vivo, Aedes aegypti", "conditions": "0.2 mM in larval growth media, 24 hours of exposure", "experimental": "Two-day-old second instar larvae were transferred to wells in a plate containing 1 ml of larval growth media. The 4-isopropyl-8-phenyl-1,3,4,6,6a,9b-hexahydrothiopyrano [3,4-e]isoindole-7,9(8H,9aH)-dione and DMSO (control) were added directly to the media and swirled. The final concentration of the 4-isopropyl-8-phenyl-1,3,4,6,6a,9b-hexahydrothiopyrano [3,4-e]isoindole-7,9(8H,9aH)-dione in each well was 0.2 mM, the DMSO concentration was 0.2%. The plates were kept in the environmental chamber. Mosquito larvae were examined under a microscope for any sign of mortality 24 hours after exposure. Data obtained from at least three biological replicates were statistically analyzed with the Bonferroni post tests."}}}
{"compound": "CC(C)[C@@H]1CSC[C@@H]2C1=CC[C@@H]1C(=O)N(c3ccccc3)C(=O)[C@@H]12", "note": "[4-isopropyl-8-phenyl-1,3,4,6,6a,9b-hexahydrothiopyrano [3,4-e]isoindole-7,9(8H,9aH)-dione]", "values": [{"measurement": "blood-fed mosquitoes exhibiting the defect in the alimentary canal (blood meal misdirected into the ventral diverticulum)", "setting": "[1]", "result": 40, "unit": "%"}, {"measurement": "follicle size", "setting": "blood-fed mosquitoes", "result": "145.6±11.0", "unit": "μm"}, {"measurement": "number of mosquito larvae died", "setting": "[2]", "result": "18 out of 45 mosquito larvae"}, {"measurement": "mosquito larvae died", "setting": "[2]; all control larvae survived", "result": 40, "unit": "%"}]}
